Reference: PubChem BioAssay (NCI)
“And” between values parts separate entries of the source, which are not always exact repeats. Equal entries are not always repeated.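 In this assay, cells in 96-well plates receive the compound at five concentrations for 48 hours. Endpoints are linearly interpolated between the surrounding concentrations. The concentration for 50% growth inhibition is given as GI50. TGI denotes the concentration required for complete inhibition of growth.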

What was measured:
Experiment in all cases: NCI-60 cell line screen, 48 h
[1] = system: OVCAR-3 ovarian
[2] = system: NCI-H23 lung
[3] = system: SR leukemia
[4] = system: SF-539 CNS
[5] = system: U251 CNS
[6] = system: COLO 205 colon
[7] = system: DU-145 prostate
[8] = system: EKVX NSCLC
[9] = system: RXF 393 renal
[10] = system: A498 renal

| Compound | TGI [1] [µM] | TGI [2] | TGI [3] [µM] | TGI [4] | TGI [5] [µM] | TGI [6] [µM] | TGI [7] [µM] | TGI [8] [µM] | TGI [9] [µM] | TGI [10] | GI50 [7] [µM] | GI50 [1] [µM] | GI50 [2] [µM] | GI50 [9] [µM] | GI50 [10] [µM] | GI50 [4] [µM] | GI50 [8] [µM] | GI50 [5] [µM] | GI50 [6] [µM] |
| --- | --- | --- | --- | --- | --- | --- | --- | --- | --- | --- | --- | --- | --- | --- | --- | --- | --- | --- | --- |
| CC(=O)O[C@@]1(C)[C@@H](C)C(=O)O[C@@H]2CCN3CC=C(COC(=O)[C@]1(C)O)[C@H]23 | > 100 | > 100 µM | > 100 | > 100 µM | > 100 | > 100 | – | – | – | – | – | – | – | – | – | – | – | – | – |
| CC(C(N)C(=O)NC(C(=O)O)C1OC(n2ccc(=O)[nH]c2=O)C(O)C1O)C(O)c1ccc(O)cn1 (stereo unspecified) | > 100 | > 100 µM | > 100 | > 100 µM | > 100 | > 100 | > 100 | > 100 | – | – | – | – | – | – | – | – | – | – | – |
| Cc1cccc2c1CCC21OC(=O)c2c1ccc1ccccc21 (stereo unspecified) | > 100 | 98.7 µM | 85.3 | – | > 100 | > 100 | – | > 100 | > 100 | 53.4 µM | – | – | – | – | – | – | – | – | – |
| O=C(/C=C/C12c3ccccc3C(c3ccccc31)C1C(=O)NC(=O)C12)c1ccc(F)cc1 (stereo unspecified) | 3.15 | 3.91 µM | – | 3.11 µM | 3.07 | 4.27 | 3 | 4.45 | 3.3 | 3.11 µM | 1.63 | 1.7 | 1.83 | 1.77 | 1.68 | 1.7 | 1.7 | 1.63 | 2.18 |
| NC1=NN(c2ccccc2)C(=O)C1C(=O)C(=O)Nc1nccs1 (stereo unspecified) | > 100 | > 100 µM | > 100 | > 100 µM | > 100 | > 100 | – | > 100 | > 100 | > 100 µM | – | – | – | – | – | – | – | – | – |
| CSc1snc2sc3c(Cl)nnnc3c12 | 5.72 | 36 µM | – | 32.1 µM | 28.6 | 24 | – | 38.6 | 25.1 | 28.7 µM | – | – | – | – | – | – | – | – | – |
| COc1ccc2oc(C(=O)O)c3c2c1CCC3CCC(=O)O (stereo unspecified) | > 1 | > 100 µM | > 100 | > 100 µM | > 100 | > 100 | – | > 100 | > 100 | > 100 µM | – | – | – | – | – | – | – | – | – |
| CCOC(=O)C1=C(C)N(Cc2ccc(Cl)cc2Cl)C2(O)C=CC(=O)C3=C(O)c4ccccc4C(=O)C312 (stereo unspecified) | 6 | 16.1 µM | – | – | 15.8 | 20.6 | 28.8 | 47.8 | 66.5 | 59.4 µM | 7.99 | 2.2 | 3.61 | 11.1 | 23.7 | – | 10.6 | 3.53 | 4.41 |
| Cn1c(N)nc(=O)c2c1N(C1OC(CO)C(O)C1O)CN2Cc1ccccc1 (stereo unspecified) | > 100 | > 100 µM | > 100 | > 100 µM | > 100 | > 100 | – | > 100 | > 100 | > 100 µM | – | – | – | – | – | – | – | – | – |
| CCOC(=O)c1cc(-c2ccccc2)[nH]c1N/N=C/c1ccc(Cl)cc1 | > 100 | > 100 µM | – | > 100 µM | > 100 | > 100 | > 100 | > 100 | > 100 | – | > 100 | > 100 | 79.1 | > 100 | – | > 100 | 36 | > 100 | 42.5 |
| O=C1C2C(C(=O)N1c1ccccc1)C1([N+](=O)[O-])C=C3c4ccccc4N(C(=O)c4ccccc4)C32C2C(=O)N(c3ccccc3)C(=O)C21 (stereo unspecified) | > 100 | > 100 µM | > 100 | – | > 100 | > 100 | – | – | – | > 100 µM | – | – | – | – | – | – | – | – | – |
| CCc1cc(CCC(=O)Nc2ccccc2[N+](=O)[O-])[nH]c(=S)n1 | > 100 | > 100 µM | > 100 | > 100 µM | > 100 | > 100 | – | > 100 | > 100 | – | – | – | – | – | – | – | – | – | – |
| COC(=O)C12OCC34C(CC5C(C)C6=CC(=O)OC6=CC5(C)C3C(O)C1O)OC(=O)C(O)C24 (stereo unspecified) | 3.61 | 0.493 µM and 1.16 µM | – | 0.116 µM and 0.397 µM | – | – | – | – | 4.49 | 0.507 µM and 1.49 µM | – | 0.282 | 0.156 | 0.403 | 0.266 | 0.0328 | 0.249 | 0.0446 | 0.252 |
| C=C(C(=C)N1N=NC2C3CCC(C3)C21)N1N=NC2C3CCC(C3)C21 (stereo unspecified) | > 100 | > 100 µM | > 100 | > 100 µM | > 100 | > 100 | – | – | > 100 | – | – | – | – | – | – | – | – | – | – |
| O=C(N/N=C1\C(=O)N(c2nccs2)C(=O)C(=O)C1c1nc2ccccc2s1)c1ccccc1O (stereo unspecified) | > 100 | > 100 µM | – | > 100 µM | > 100 | > 100 | – | > 100 | > 100 | > 100 µM | – | – | – | – | – | – | – | – | – |
| CC([C@H]1CCC2C3CCC4C[C@@H](N)CC[C@]4(C)C3CC[C@@]21C)N(C)C (stereo partly specified) | 21.2 | 37.2 µM | – | 4.98 µM | 15.6 | 4.37 | > 48.4 | 54.8 | 14.9 | 25.9 µM | 14.3 | 6.96 | 13.8 | 4.55 | 9.69 | 2.01 | 13.8 | 3.61 | 1.89 |
| O=C(NO)[C@@H](Cc1ccccc1)NS(=O)(=O)c1ccc(-c2ccccc2)cc1 | > 25 | > 25 µM | – | > 25 µM | > 25 | > 25 | > 25 | > 25 | – | > 25 µM | 11.1 | 13.6 | > 25 | – | > 25 | 9.56 | 15.7 | 21.3 | > 25 |
| Cc1cn2c(/C=N/N=C(N)N)c(-c3ccccn3)nc2s1 | 34.2 | 16.7 µM | – | 14.4 µM | 45.1 | 42 | 37.7 | 25.8 | 18.1 | 34 µM | 10.5 | 17.3 | 6.65 | 5.9 | 17.8 | 3.35 | 8.37 | 19.1 | 11.3 |
